Source: US7446094B2, “Cytotoxic depsipeptides” (Instituto Biomar S.A., priority 2003, dated 2008)

Key:
Hela S3 cells = conditions: from JP 11180997; cited from earlier work
[1] = tested on: human non-small cell lung tumour (LX-1 cell line) xenografts; assay: Human non-small cell lung tumour xenograft, net tumour growth; format: in vivo, female athymic mice; conditions: for Net Tumour Growth ± S.E.M.: LX-1 xenograft
Excerpt: (§1) At different times, three human tumour cell lines MX-1 (breast), HT-29 (colon), and LX-1 (non-small cell lung), respectively, were implanted subcutaneously into separate groups of recipient female athymic mice as a small seedling of approximately 2-3 mm^3. Each tumour type was then allowed to grow inside the animal to reach a group mean size of 100±15 mm^3, at which time tumour-bearing mice were randomized into groups (Staging Day). The Staging Day also coincided with Day 0 for drug dosing.
(§2) The test article was administered as a single intravenous (iv) bolus injection (i.e., QD×1) on the Staging Day (Day 0).
(§3) Tumour burden was determined for all animals throughout the study using a caliper, and the frequency was at least twice per week.
(§4) Protocols and criteria for drug activity were derived from those established by the National Cancer Institute for tumour systems similar to those used in these studies (NIH Publication No. 84-2635, In vivo cancer models 1976-1982). Statistical analysis of tumour volumes for each group of drug treated animals was performed according to the Mann Whitney nonparametric test based on comparisons to the vehicle control cohort within the same experiment.
(§5) Tumour lengths (L) and widths (W) were measured in millimeters (mm) using calipers, recorded, and tumour volume was calculated by the formula: Volume (mm^3)=L×W^2×0.5. Individual values were determined for each tumour-bearing athymic- mouse and specified day of measurement (day D). On the tumour Staging Day (Day 0), the tumour volume of a treated animal (T01) was subtracted from the corresponding tumour volume on each observation day (TD1). This provided the change (Δ) in tumour volume for the said treated athymic mouse (ΔT1=TD1−T01). The change in tumour volumes for each member of the control cohort (ΔC) was calculated in a similar fashion as above.
(§6) At randomization (Day 0) the average volume of the tumour mass was 100±15 mm^3 and the “net tumour growth” is really a difference between the size of the tumour on Day X and that on Day 0. The parameter S.E.M. is commonly used in statistics and stands for standard error of the mean in a distribution of N (size) experimental values.

[2] = tested on: human breast tumour (MX-1 cell line) xenografts; assay: Human breast tumour xenograft, net tumour growth; format: in vivo, female athymic mice; set-up: key to Net Tumour Growth ± S.E.M.: †: High mortality prevented meaningful statistical analysis; conditions: for Net Tumour Growth ± S.E.M.: MX-1 xenograft
Excerpt: as §1, §2, §3, §4, §5, §6

[3] = tested on: human colon tumour (HT-29 cell line) xenografts; assay: Human colon tumour xenograft, net tumour growth; format: in vivo, female athymic mice; conditions: for Net Tumour Growth ± S.E.M.: HT-29 xenograft, single iv dose 0.5 mg/kg
Excerpt: as §1, §2, §3, §4, §5, §6

Y-79 = assay: MTS tetrazolium cytotoxicity assay; format: cell-based; conditions: Homo sapiens, Y79, 72 h, read-out: Cytotoxic activity (IC50)
Excerpt: (§7) The finality of these assays is to interrupt the growth of an “in vitro” tumour cell culture by means a continued exhibition of the cells to the sample to be testing. The following human cell lines were used:
(§8) Tetrazolium Assay MTS is based on metabolic reduction of MTS to solubilized formazan crystals by the metabolically active mitochondria of living cells. For this reason, the methodology includes counting of the cell lines based on viability staining to ensure that cell concentrations are corrected to allow for 100% living cells into each well in lieu of Coulter counting or estimated dilutions based on standard growth curves.
(§9) Medium containing drug was removed at the end of the treatment and culture plates rinsed one time with PBS. Afterward, cells were incubated in 200 μl of drug-free medium until 72 hours. After appropriate incubation time 25 μl of MTS+PMS solution was added to each microtiter well and incubated for 4 hours at 37° C. Plates were then removed from the incubator and placed on plate shaker for 5 minutes (covered for protection from light). Optical densities were read at 490 nm on spectrophotometer plate reader. Data was analyzed using Softmax.
(§10) Data is presented as IC50 potencies calculated from 3rd order polynomial regression curves using Microsoft Excel and then manually interpolated.

SW 694 = assay: MTS tetrazolium cytotoxicity assay; format: cell-based; conditions: Homo sapiens, 72 h, read-out: Cytotoxic activity (IC50)
Excerpt: as §7, §8, §9, §10

H9 = assay: MTS tetrazolium cytotoxicity assay; format: cell-based; conditions: Homo sapiens, H9, 72 h, read-out: Cytotoxic activity (IC50)
Excerpt: as §7, §8, §9, §10

PANC-1 = assay: MTS tetrazolium cytotoxicity assay; format: cell-based; conditions: Homo sapiens, PANC-1, 72 h, read-out: Cytotoxic activity (IC50)
Excerpt: as §7, §8, §9, §10

FADU = assay: MTS tetrazolium cytotoxicity assay; format: cell-based; conditions: Homo sapiens, 72 h, read-out: Cytotoxic activity (IC50)
Excerpt: as §7, §8, §9, §10

LNCAP = assay: MTS tetrazolium cytotoxicity assay; format: cell-based; conditions: Homo sapiens, 72 h, read-out: Cytotoxic activity (IC50)
Excerpt: as §7, §8, §9, §10

BT-474 = assay: MTS tetrazolium cytotoxicity assay; format: cell-based; conditions: Homo sapiens, BT-474, 72 h, read-out: Cytotoxic activity (IC50)
Excerpt: as §7, §8, §9, §10

MC116 = assay: MTS tetrazolium cytotoxicity assay; format: cell-based; conditions: Homo sapiens, MC116, 72 h, read-out: Cytotoxic activity (IC50)
Excerpt: as §7, §8, §9, §10

DU-145 = assay: MTS tetrazolium cytotoxicity assay; format: cell-based; conditions: Homo sapiens, DU-145, 72 h, read-out: Cytotoxic activity (IC50)
Excerpt: as §7, §8, §9, §10

CHSA = assay: MTS tetrazolium cytotoxicity assay; format: cell-based; conditions: Homo sapiens, 72 h, read-out: Cytotoxic activity (IC50)
Excerpt: as §7, §8, §9, §10

Mel-28 = assay: MTS tetrazolium cytotoxicity assay; format: cell-based; conditions: Homo sapiens, SK-MEL-28, 72 h, read-out: Cytotoxic activity (IC50)
Excerpt: as §7, §8, §9, §10

K562 = assay: MTS tetrazolium cytotoxicity assay; format: cell-based; conditions: Homo sapiens, K562, 72 h, read-out: Cytotoxic activity (IC50)
Excerpt: as §7, §8, §9, §10

Hs746t = assay: MTS tetrazolium cytotoxicity assay; format: cell-based; conditions: Homo sapiens, 72 h, read-out: Cytotoxic activity (IC50)
Excerpt: as §7, §8, §9, §10

SK-OV-3 = assay: MTS tetrazolium cytotoxicity assay; format: cell-based; conditions: Homo sapiens, SK-OV-3, 72 h, read-out: Cytotoxic activity (IC50)
Excerpt: as §7, §8, §9, §10

MX-1 = assay: MTS tetrazolium cytotoxicity assay; format: cell-based; conditions: Homo sapiens, MX1, 72 h, read-out: Cytotoxic activity (IC50)
Excerpt: as §7, §8, §9, §10

A549 = assay: MTS tetrazolium cytotoxicity assay; format: cell-based; conditions: Homo sapiens, A549, 72 h, read-out: Cytotoxic activity (IC50)
Excerpt: as §7, §8, §9, §10

HT-29 = assay: MTS tetrazolium cytotoxicity assay; format: cell-based; conditions: Homo sapiens, HT-29, 72 h, read-out: Cytotoxic activity (IC50)
Excerpt: as §7, §8, §9, §10

NCI-H187 = assay: MTS tetrazolium cytotoxicity assay; format: cell-based; conditions: Homo sapiens, NCI-H187, 72 h, read-out: Cytotoxic activity (IC50)
Excerpt: as §7, §8, §9, §10

SW-579 = assay: MTS tetrazolium cytotoxicity assay; format: cell-based; conditions: Homo sapiens, SW579, 72 h, read-out: Cytotoxic activity (IC50)
Excerpt: as §7, §8, §9, §10

SK-HEP-1 = assay: MTS tetrazolium cytotoxicity assay; format: cell-based; conditions: Homo sapiens, SK-HEP1, 72 h, read-out: Cytotoxic activity (IC50)
Excerpt: as §7, §8, §9, §10

786-O = assay: MTS tetrazolium cytotoxicity assay; format: cell-based; conditions: Homo sapiens, 786-0, 72 h, read-out: Cytotoxic activity (IC50)
Excerpt: as §7, §8, §9, §10

TT = assay: MTS tetrazolium cytotoxicity assay; format: cell-based; conditions: Homo sapiens, 72 h, read-out: Cytotoxic activity (IC50)
Excerpt: as §7, §8, §9, §10

PC-3 = assay: MTS tetrazolium cytotoxicity assay; format: cell-based; conditions: Homo sapiens, PC-3, 72 h, read-out: Cytotoxic activity (IC50)
Excerpt: as §7, §8, §9, §10

OSA-FH = assay: MTS tetrazolium cytotoxicity assay; format: cell-based; conditions: Homo sapiens, 72 h, read-out: Cytotoxic activity (IC50)
Excerpt: as §7, §8, §9, §10

HL-60 = assay: MTS tetrazolium cytotoxicity assay; format: cell-based; conditions: Homo sapiens, HL-60, 72 h, read-out: Cytotoxic activity (IC50)
Excerpt: as §7, §8, §9, §10

SK-N-MC = assay: MTS tetrazolium cytotoxicity assay; format: cell-based; conditions: Homo sapiens, 72 h, read-out: Cytotoxic activity (IC50)
Excerpt: as §7, §8, §9, §10

5637 = assay: MTS tetrazolium cytotoxicity assay; format: cell-based; conditions: Homo sapiens, 72 h, read-out: Cytotoxic activity (IC50)
Excerpt: as §7, §8, §9, §10

[4] = Maximum tolerated dose in mice; conditions: CD-1, mouse, in vivo
[5] = single iv dose 1.0 mg/kg, DAY 3
[6] = single iv dose 1.0 mg/kg, DAY 6
[7] = single iv dose 1.0 mg/kg, DAY 10
[8] = single iv dose 1.5 mg/kg, DAY 3
[9] = single iv dose 1.5 mg/kg, DAY 6
[10] = single iv dose 1.5 mg/kg, DAY 10

**Q.** With CCC(C)C1NC(=O)c2nc(oc2-c2ccccc2)-c2csc(n2)-c2coc(n2)-c2coc(n2)-c2coc(n2)CNC(=O)C(C(C)C)NC1=O (centres unmarked) as the compound, how does the IC50 (Hela S3 cells) read?
**A.** 14 nM

**Q.** With C=C1NC(=O)C(C(C)C)NC(=O)C(C(C)CC)NC(=O)c2nc(oc2-c2ccccc2)-c2coc(n2)-c2csc(n2)-c2coc(n2)-c2coc1n2 (centres unmarked) [IB-01211] as the compound, how does the “Net Tumour Growth ± S.E.M.” value [1, 5] read?
**A.** 68 ± 29 mm^3

**Q.** What about the “Net Tumour Growth ± S.E.M.” value [1, 6] of the same compound?
**A.** 234 ± 11 mm^3

**Q.** What about the “Net Tumour Growth ± S.E.M.” value [1, 7] of the same compound?
**A.** 561 ± 60 mm^3

**Q.** What about the “Net Tumour Growth ± S.E.M.” value [1, 8] of the same compound?
**A.** 11 ± 19 mm^3

**Q.** And the “Net Tumour Growth ± S.E.M.” value [1, 9]?
**A.** 121 ± 51 mm^3

**Q.** What about the “Net Tumour Growth ± S.E.M.” value [1, 10] of the same compound?
**A.** 309 ± 71 mm^3

**Q.** What about the “antitumour effect in vivo” value ([1]; human non-small cell lung tumour, dose of 0.43 MTD) of the same compound?
**A.** significant antitumour effect

**Q.** And the “Net Tumour Growth ± S.E.M.” value [2, 5]?
**A.** 5 ± 3 mm^3

**Q.** What about the “Net Tumour Growth ± S.E.M.” value [2, 6] of the same compound?
**A.** 113 ± 62 mm^3

**Q.** And the “Net Tumour Growth ± S.E.M.” value [2, 7]?
**A.** 450 ± 137 mm^3

**Q.** And the “Net Tumour Growth ± S.E.M.” value [2, 8]?
**A.** †

**Q.** And the “Net Tumour Growth ± S.E.M.” value [2, 9]?
**A.** †

**Q.** What about the “Net Tumour Growth ± S.E.M.” value [2, 10] of the same compound?
**A.** †

**Q.** What about the “antitumour effect in vivo” value ([2]; breast tumour, dose of 0.29 MTD) of the same compound?
**A.** trend to significance

**Q.** What about the “Net Tumour Growth ± S.E.M.” value ([3]; DAY 1) of the same compound?
**A.** 26 ± 11 mm^3

**Q.** What about the “Net Tumour Growth ± S.E.M.” value ([3]; DAY 4) of the same compound?
**A.** 53 ± 28 mm^3

**Q.** And the “Net Tumour Growth ± S.E.M.” value ([3]; DAY 8)?
**A.** 162 ± 34 mm^3

**Q.** What about the “antitumour effect in vivo” value ([3]; colon tumour, dose of 0.14 MTD) of the same compound?
**A.** not against colon tumour

**Q.** What about the IC50 (Y-79) of the same compound?
**A.** 93.2 nM

**Q.** What about the IC50 (SW 694) of the same compound?
**A.** 720 nM

**Q.** And the IC50 (H9)?
**A.** 184 nM

**Q.** What about the IC50 (PANC-1) of the same compound?
**A.** 424 nM

**Q.** And the IC50 (FADU)?
**A.** 664 nM

**Q.** And the IC50 (LNCAP)?
**A.** 650 nM

**Q.** And the IC50 (BT-474)?
**A.** 537 nM

**Q.** And the IC50 (MC116)?
**A.** 3390 nM

**Q.** What about the IC50 (DU-145) of the same compound?
**A.** 480 nM

**Q.** What about the IC50 (CHSA) of the same compound?
**A.** 353 nM

**Q.** What about the IC50 (Mel-28) of the same compound?
**A.** 508 nM

**Q.** What about the IC50 (K562) of the same compound?
**A.** 636 nM

**Q.** And the IC50 (Hs746t)?
**A.** 692 nM

**Q.** And the IC50 (SK-OV-3)?
**A.** 946 nM

**Q.** What about the IC50 (MX-1) of the same compound?
**A.** 862 nM

**Q.** And the IC50 (A549)?
**A.** 918 nM

**Q.** And the IC50 (HT-29)?
**A.** 817 nM

**Q.** What about the IC50 (NCI-H187) of the same compound?
**A.** 29.7 nM

**Q.** And the IC50 (SW-579)?
**A.** 452 nM

**Q.** And the IC50 (SK-HEP-1)?
**A.** 664 nM

**Q.** And the IC50 (786-O)?
**A.** 692 nM

**Q.** And the IC50 (TT)?
**A.** 4380 nM

**Q.** What about the IC50 (PC-3) of the same compound?
**A.** 621 nM

**Q.** What about the IC50 (OSA-FH) of the same compound?
**A.** 720 nM

**Q.** What about the IC50 (HL-60) of the same compound?
**A.** 141 nM

**Q.** What about the IC50 (SK-N-MC) of the same compound?
**A.** 537 nM

**Q.** And the IC50 5637?
**A.** 339 nM

**Q.** And the MTD [4]?
**A.** 3.5 mg/kg
